In patent EP0086757A1, “Derivatives of alpha or beta-mercaptopropionylamidoacetic acids, processes for their preparation and the therapeutic compositions which include them as active principles” (Farmatis S.r.l., priority 1982, dated 1983):
Like-named read-outs stand apart in the source and are kept apart here.

How the values were obtained:
[1] = system: Carragenin-induce edema in hind paw of the rat; details: comparison value for a classical antiphlogistic; cited from earlier work
acute toxicity (DL50) = type: in vivo
Procedure: In fact, while S-carboxymethylcysteine has a DL50 of 5.18 g/kg, the new thiolic esters' DL50 cannot be determined, i.p., since more than 5 g/kg cannot be administered; but, orally, the DL50 is above 8 g/kg, as with the S-carboymethylcysteine. The subacute, chronic and fetal toxi city was evaluated by mixing the esters with the food.

[2] = system: Carragenin-induce edema in hind paw of the rat; assay: carragenin-induced hind paw edema (anti-inflammatory activity); type: in vivo, rats; details: oral by esophagal probe one hour before carragenin; paw volume three hours later
Procedure: The anti-inflammatory activity was investigated on rats by administering the new products,orally,using an esophagal probe. One hour after administration, a subcutaneous injection of 0.05 ml of 1% carragenin was made in the right hind paw and three hours later a plethysmometric evaluation was made of the difference in volume between the two hind paws (WINTER C.A., RISLEY E.A., NUSS G.W., Carragenin-induce edema in hind paw of the rat as an assay for anti-inflammatory drugs. Proc. Soc. Exp. Biol. Med., 111, 544 - 1962).

[3] = system: bronchial hypersecretion induced in rats with SO2; assay: bronchial hypersecretion induced with SO2 inhalation; type: in vivo; details: oral 0.5 g/kg/die for two weeks; 300 ppm SO2 two hours per day, total 90 hours; untreated 80%
Procedure: The inhalation of 300 ppm of […] for two hours per day, for a total period of 90 hours, produced bronchial obstruction in only 12% of the animals compared to the 80% produced in those not treated. […] Finally, with the rats which underwent CCl4 nebulization treatment for 10 days (5 applications, 2.minutes per day), the contemporaneous oral administration of the esters of this invention, at doses of 0.5 g/kg/die, prevented intrabronchial desquamation and reactive hyperplasia of the mucosa to the extent of 60%.

[4] = system: glycopeptides of the bronchial mucus; assay: glycopeptide analysis of bronchial mucus of orally treated patients with bronchial hypersecretion; type: in vivo; details: comparative test, 70 mg/kg/die
[5] = system: rats which underwent CCl4 nebulization treatment; assay: CCl4 nebulization, bronchial mucosa protection; type: in vivo; details: oral 0.5 g/kg/die; CCl4 nebulization 10 days, 5 applications, 2 minutes per day
Source text: Finally, with the rats which underwent CCl4 nebulization treatment for 10 days (5 applications, 2.minutes per day), the contemporaneous oral administration of the esters of this invention, at doses of 0.5 g/kg/die, prevented intrabronchial desquamation and reactive hyperplasia of the mucosa to the extent of 60%.

aerosol histaminic shock = aerosol histaminic shock (antibronchospastic activity); type: in vivo
Procedure: The antibronchospastic activity of the new compounds, in face, was evaluated by pretreating test animals with 2 g/kg of the new compounds, administered by way of an esophagal probe, and then submitting them to aerosol histaminic shock (histamine phosphate 1:80 at about 140 mm Eg). The time was noted between when the aerosol was given and the convulsions began. After two hours of pretreatment, times amounting to 70% of the approximately 120 seconds of the control group were obtained. […] The new compounds, therefore, provide intense and persistent protection against bronchspasm induced experimentally with histamine, in strict correlation with the anti-inflammatory activity reported previously.

| SMILES | DE50 [1] [mg/kg] | DL50 (acute toxicity (DL50); i.p. (route only implied for the comparator), more than 5 g/kg cannot be administered) [g/kg] | DL50 (acute toxicity (DL50); orally) | DE50 [2] | animals with bronchial obstruction (not protected) [3] [%] | average increase in sialoglycopeptides [4] [%] | diminution of glycopeptides and mucin [4] [%] | prevention of intrabronchial desquamation and reactive hyperplasia of the mucosa [5] [%] | difference between the control and tested subjects in time to convulsions (aerosol histaminic shock) |
| --- | --- | --- | --- | --- | --- | --- | --- | --- | --- |
| CC(=O)Oc1ccccc1C(=O)O [acetylsalicylic acid] | 100 | – | – | – | – | – | – | – | – |
| N[C@@H](CSCC(=O)O)C(=O)O [S-carboxymethylcysteine] | – | 5.18 | above 8 g/kg | not determinable | 25 | ≤ 75 | ≤ 45 | ≤ 40 | no appreciable difference |
